Assay results published in ChEMBL document CHEMBL3108733, “Design, synthesis, and evaluation of hydroxamic acid derivatives as promising agents for the management of Chagas disease” (J Med Chem, 2014).
Blank lines part the entries; values can stand above or below the molecule they belong to. Calls of active or inactive are those of the source. The rule behind the calls is not given here.

Key:
Trypanosoma cruzi [1] = assay: Antitrypanosomal activity against Trypanosoma cruzi Y epimastigotes assessed as growth inhibition at 32 uM after 5 days by Neubauer chamber counting analysis relative to control; format: functional
[2] = Inhibition of Trypanosoma cruzi recombinant carbonic anhydrase-mediated CO2 hydration by stopped-flow assay
Carbonic anhydrase 2 = Carbonic anhydrase 2 (Homo sapiens, UniProt P00918); assay: Inhibition of human recombinant carbonic anhydrase-2-mediated CO2 hydration by stopped-flow assay
Carbonic anhydrase 1 = Carbonic anhydrase 1 (Homo sapiens, UniProt P00915); assay: Inhibition of human recombinant carbonic anhydrase-1-mediated CO2 hydration by stopped-flow assay
Trypanosoma cruzi [3] = assay: Trypanocidal activity against Trypanosoma cruzi Y infected in BALB/c mouse assessed as mouse survival at 100 mg/kg treated from day 2 to day 9 post-infection; format: functional
Trypanosoma cruzi [4] = assay: Trypanocidal activity against Trypanosoma cruzi Y infected in BALB/c mouse assessed as reduction in parasitemia at 25 mg/kg treated from day 2 to day 9 post-infection measured on day 6 post-infection; format: functional, organism-based; design: dose 25 mg/kg
Trypanosoma cruzi [5] = assay: Trypanocidal activity against Trypanosoma cruzi Y infected in BALB/c mouse assessed as reduction in parasitemia at 25 mg/kg treated from day 2 to day 9 post-infection measured on day 9 post-infection; format: functional, organism-based; design: dose 25 mg/kg
Trypanosoma cruzi [6] = assay: Antitrypanosomal activity against Trypanosoma cruzi Y infected in human THP1 cells assessed as reduction of parasite burden after 48 hrs by Giemsa staining-based Neubauer chamber counting analysis; conditions: THP-1, 48 h
Trypanosoma cruzi [7] = assay: Antitrypanosomal activity against Trypanosoma cruzi Y trypomastigotes after 48 hrs by Neubauer chamber counting analysis
Trypanosoma cruzi [8] = conditions: Y, 32 to 64 uM
Description: Inhibition of cysteine peptidase in Trypanosoma cruzi Y epimastigotes at 32 to 64 uM after 12 hrs by gelatin zymography assay

Trypanosoma cruzi [9] = assay: Antitrypanosomal activity against Trypanosoma cruzi Dm28c epimastigotes after 5 days by resazurin dye-based assay; conditions: 120 h
Trypanosoma cruzi [10] = conditions: Y, 16 uM
Description: Inhibition of MMP9 in Trypanosoma cruzi Y epimastigotes assessed as effect on protein level at 16 uM after 5 days by Western blotting analysis

Trypanosoma cruzi [11] = conditions: Y, 32 to 64 uM; remark: listed apart in the source
Description: Inhibition of metallopeptidase in Trypanosoma cruzi Y epimastigotes at 32 to 64 uM after 12 hrs by gelatin zymography assay

Trypanosoma cruzi [12] = assay: Antitrypanosomal activity against Trypanosoma cruzi Y trypomastigotes at 16 uM after 48 hrs by Neubauer chamber counting analysis relative to control; format: functional
Trypanosoma cruzi [13] = assay: Antitrypanosomal activity against Trypanosoma cruzi Y infected in BALB/c mouse peritoneal macrophages assessed as reduction of parasite burden at 32 uM after 48 hrs by Giemsa staining-based Neubauer chamber counting analysis relative to control; format: functional; design: scale not given: the % may be the effect or the level left
Trypanosoma cruzi [14] = assay: Antitrypanosomal activity against Trypanosoma cruzi Dm28c trypomastigotes at 16 uM after 48 hrs by Neubauer chamber counting analysis relative to control; format: functional
Trypanosoma cruzi [15] = assay: Antitrypanosomal activity against Trypanosoma cruzi Y infected in human THP1 cells assessed as reduction of parasite burden at 32 uM after 48 hrs by Giemsa staining-based Neubauer chamber counting analysis relative to control; format: functional, THP-1; design: scale not given: the % may be the effect or the level left
Trypanosoma cruzi [16] = assay: Antitrypanosomal activity against Trypanosoma cruzi Y infected in BALB/c mouse peritoneal macrophages assessed as decrease in trypomastigotes release at 16 uM after 120 hrs by Giemsa staining-based Neubauer chamber counting analysis; format: functional, organism-based
[17] = Cytotoxicity against BALB/c mouse peritoneal macrophages after 48 hrs by MTT/LDH assay; format: cell-based, Peritoneal macrophage cell
[18] = Cytotoxicity against BALB/c mouse peritoneal macrophages after 24 hrs by MTT/LDH assay; format: cell-based, Peritoneal macrophage cell
Trypanosoma cruzi [19] = assay: Antitrypanosomal activity against Trypanosoma cruzi Y infected in human THP1 cells assessed as decrease in intracellular amastigotes at 2 uM after 48 hrs by Giemsa staining-based Neubauer chamber counting analysis; format: functional, organism-based; conditions: THP-1
Trypanosoma cruzi [20] = assay: Antitrypanosomal activity against Trypanosoma cruzi Y epimastigotes after 5 days by resazurin dye-based assay; conditions: 120 h
Trypanosoma cruzi [21] = assay: Antitrypanosomal activity against Trypanosoma cruzi Dm28c trypomastigotes after 48 hrs by Neubauer chamber counting analysis
Trypanosoma cruzi [22] = assay: Antitrypanosomal activity against Trypanosoma cruzi Y infected in BALB/c mouse peritoneal macrophages assessed as reduction of parasite burden after 48 hrs by Giemsa staining-based Neubauer chamber counting analysis
Trypanosoma cruzi [23] = assay: Trypanocidal activity against Trypanosoma cruzi Y infected in BALB/c mouse assessed as mouse survival at 25 mg/kg treated from day 2 to day 9 post-infection; format: functional
Trypanosoma cruzi [24] = assay: Inhibition of MMP9 in Trypanosoma cruzi Y epimastigotes assessed as effect on protein level at 32 uM after 5 days by Western blotting analysis

Sequence of Carbonic anhydrase 1 (P00915 whole entry): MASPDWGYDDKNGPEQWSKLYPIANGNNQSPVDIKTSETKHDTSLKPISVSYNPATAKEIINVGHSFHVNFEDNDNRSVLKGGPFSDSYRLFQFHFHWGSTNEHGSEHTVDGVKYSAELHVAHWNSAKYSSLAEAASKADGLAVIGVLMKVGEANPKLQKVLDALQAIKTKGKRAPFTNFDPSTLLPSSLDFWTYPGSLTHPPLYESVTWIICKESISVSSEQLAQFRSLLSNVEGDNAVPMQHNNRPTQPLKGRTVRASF

Structure (SMILES): CCOc1ccccc1C1=NOC(C(=O)NN)C1 (centres undefined)
Ki (Carbonic anhydrase 2): > 100000 nM
Ki [2]: > 100000 nM
Ki (Carbonic anhydrase 1): > 100000 nM

Structure (SMILES): CC1(C(=O)NO)CC(c2cccc(Br)c2)=NO1 (centres undefined)
growth inhibition (GI) (Trypanosoma cruzi [1]): inactive
Ki [2]: 615 nM

Structure (SMILES): O=C(Cn1ccnc1[N+](=O)[O-])NCc1ccccc1 [BENZNIDAZOLE]
Survival (Trypanosoma cruzi [3]): 25 days
growth inhibition (GI) (Trypanosoma cruzi [1]): Active

Structure (SMILES): O=C(NO)C1CC(c2ccc(OCc3ccccc3)cc2)=NO1 (centres undefined)
Activity (Trypanosoma cruzi [4]): inactive
Activity (Trypanosoma cruzi [5]): Active
IC50 (Trypanosoma cruzi [6]): < 1000 nM
IC50 (Trypanosoma cruzi [7]): 3500 nM
inhibition (Trypanosoma cruzi [8]): Active
IC50 (Trypanosoma cruzi [9]): 10400 nM
inhibition (Trypanosoma cruzi [10]): Active
inhibition (Trypanosoma cruzi [11]): Active
inhibition of growth at 32 µM (Trypanosoma cruzi [1]; 120 h, read-out: GI): 100%
Activity (Trypanosoma cruzi [12]): 100%
Activity (Trypanosoma cruzi [13]): 5%
Activity (Trypanosoma cruzi [14]): 100%
Ki [2]: 39.8 nM
Activity (Trypanosoma cruzi [15]): 100%
Activity (Trypanosoma cruzi [16]): Active
CC50 at 48 h [17]: 64000 nM
CC50 at 24 h [18]: 92000 nM
Activity (Trypanosoma cruzi [19]): Active
IC50 (Trypanosoma cruzi [20]): 7000 nM
IC50 (Trypanosoma cruzi [21]): 5900 nM
IC50 (Trypanosoma cruzi [22]): 9100 nM
Survival (Trypanosoma cruzi [23]): 25 days

Structure (SMILES): C[C@H]1c2cccc(O)c2C(=O)C2=C(O)[C@]3(O)C(=O)C(C(N)=O)=C(O)[C@@H](N(C)C)[C@@H]3[C@@H](O)[C@@H]21
inhibition (Trypanosoma cruzi [24]): inactive

Structure (SMILES): O=C(NO)C1CC(c2ccccc2)=NO1 (centres undefined)
growth inhibition (GI) (Trypanosoma cruzi [1]): inactive
Ki [2]: 428 nM

Structure (SMILES): CCOc1ccc(C2=NOC(C(=O)NN)C2)cc1 (centres undefined)
Ki (Carbonic anhydrase 2): > 100000 nM
Ki [2]: > 100000 nM
Ki (Carbonic anhydrase 1): > 100000 nM

The next lines start with results.

Ki [2]: 267 nM
Structure (SMILES): O=C(NO)C1CC(c2cccc(Cl)c2)=NO1 (centres undefined)
growth inhibition (GI) (Trypanosoma cruzi [1]): Active

Ki [2]: 263 nM
Structure (SMILES): O=C(NO)C1CC(c2ccccc2Cl)=NO1 (centres undefined)
growth inhibition (GI) (Trypanosoma cruzi [1]): Active

Ki [2]: 182 nM
Structure (SMILES): CC1(C(=O)NO)CC(c2cccc(F)c2)=NO1 (centres undefined)

Ki [2]: 189 nM
Structure (SMILES): O=C(NO)C1CC(c2ccc(Cl)cc2)=NO1 (centres undefined)
growth inhibition (GI) (Trypanosoma cruzi [1]): Active

Ki [2]: 71.3 nM
Structure (SMILES): CCOc1ccc(C2=NOC(C(=O)NO)C2)cc1 (centres undefined)
growth inhibition (GI) (Trypanosoma cruzi [1]): Active

Ki [2]: 94.1 nM
Structure (SMILES): CCOc1ccccc1C1=NOC(C(=O)NO)C1 (centres undefined)
growth inhibition (GI) (Trypanosoma cruzi [1]): Active

Ki [2]: 365 nM
Structure (SMILES): CC1(C(=O)NO)CC(c2cccc(Cl)c2)=NO1 (centres undefined)
growth inhibition (GI) (Trypanosoma cruzi [1]): inactive

Ki [2]: 141 nM
Structure (SMILES): CC1(C(=O)NO)CC(c2ccccc2F)=NO1 (centres undefined)
